Laboratory results taken from article PMC10840383, “Clinical features, functional consequences, and rescue pharmacology of missense GRID1 and GRID2 human variants” (Human Molecular Genetics, 2023).

Legend:
[1] = target: T1, GluD1-R341Q (Homo sapiens, UniProt Q9ULK0, R341Q); test: TEVC of constitutive current, Xenopus oocytes expressing GluD1-R341Q; assay type: cell-based
T1 construct: expressed in transfected cells; host or cells: Xenopus laevis oocytes injected with cRNA
T1 sequence (Q9ULK0 21-1009 R341Q): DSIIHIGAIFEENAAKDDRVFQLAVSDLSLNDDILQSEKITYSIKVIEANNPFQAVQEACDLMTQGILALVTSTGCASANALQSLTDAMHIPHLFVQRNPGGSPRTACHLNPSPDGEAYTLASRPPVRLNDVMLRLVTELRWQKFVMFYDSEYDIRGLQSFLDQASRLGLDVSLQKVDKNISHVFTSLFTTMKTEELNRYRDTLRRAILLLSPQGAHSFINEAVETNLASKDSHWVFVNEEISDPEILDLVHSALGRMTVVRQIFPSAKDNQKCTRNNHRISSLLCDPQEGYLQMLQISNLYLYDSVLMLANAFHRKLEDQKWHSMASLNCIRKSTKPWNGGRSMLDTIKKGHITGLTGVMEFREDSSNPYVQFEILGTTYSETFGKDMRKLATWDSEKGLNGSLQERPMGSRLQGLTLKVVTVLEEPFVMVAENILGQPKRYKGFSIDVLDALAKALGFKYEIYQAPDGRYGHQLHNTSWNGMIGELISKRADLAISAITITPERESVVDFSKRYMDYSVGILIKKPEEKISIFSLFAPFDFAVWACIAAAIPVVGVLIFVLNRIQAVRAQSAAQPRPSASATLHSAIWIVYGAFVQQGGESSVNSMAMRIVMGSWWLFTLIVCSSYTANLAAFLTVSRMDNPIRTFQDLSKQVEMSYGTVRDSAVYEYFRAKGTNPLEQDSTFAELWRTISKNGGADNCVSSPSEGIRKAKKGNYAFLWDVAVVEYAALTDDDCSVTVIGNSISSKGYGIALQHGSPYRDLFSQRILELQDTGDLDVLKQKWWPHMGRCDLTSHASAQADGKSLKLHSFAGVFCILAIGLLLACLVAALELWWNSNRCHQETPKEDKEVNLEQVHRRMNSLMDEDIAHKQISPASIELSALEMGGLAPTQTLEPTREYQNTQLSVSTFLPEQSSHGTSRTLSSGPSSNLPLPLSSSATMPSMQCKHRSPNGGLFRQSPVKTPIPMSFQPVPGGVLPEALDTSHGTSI

[2] = target: T2, GluD2-D535E (Rattus norvegicus, UniProt Q63226, D535E); test: TEVC of constitutive current, Xenopus oocytes expressing GluD2-D535E; assay type: cell-based; conditions: positive = increase, negative = decrease of activity
T2 construct: expressed in transfected cells; host or cells: Xenopus laevis oocytes injected with cRNA
T2 sequence (Q63226 24-1007 D535E): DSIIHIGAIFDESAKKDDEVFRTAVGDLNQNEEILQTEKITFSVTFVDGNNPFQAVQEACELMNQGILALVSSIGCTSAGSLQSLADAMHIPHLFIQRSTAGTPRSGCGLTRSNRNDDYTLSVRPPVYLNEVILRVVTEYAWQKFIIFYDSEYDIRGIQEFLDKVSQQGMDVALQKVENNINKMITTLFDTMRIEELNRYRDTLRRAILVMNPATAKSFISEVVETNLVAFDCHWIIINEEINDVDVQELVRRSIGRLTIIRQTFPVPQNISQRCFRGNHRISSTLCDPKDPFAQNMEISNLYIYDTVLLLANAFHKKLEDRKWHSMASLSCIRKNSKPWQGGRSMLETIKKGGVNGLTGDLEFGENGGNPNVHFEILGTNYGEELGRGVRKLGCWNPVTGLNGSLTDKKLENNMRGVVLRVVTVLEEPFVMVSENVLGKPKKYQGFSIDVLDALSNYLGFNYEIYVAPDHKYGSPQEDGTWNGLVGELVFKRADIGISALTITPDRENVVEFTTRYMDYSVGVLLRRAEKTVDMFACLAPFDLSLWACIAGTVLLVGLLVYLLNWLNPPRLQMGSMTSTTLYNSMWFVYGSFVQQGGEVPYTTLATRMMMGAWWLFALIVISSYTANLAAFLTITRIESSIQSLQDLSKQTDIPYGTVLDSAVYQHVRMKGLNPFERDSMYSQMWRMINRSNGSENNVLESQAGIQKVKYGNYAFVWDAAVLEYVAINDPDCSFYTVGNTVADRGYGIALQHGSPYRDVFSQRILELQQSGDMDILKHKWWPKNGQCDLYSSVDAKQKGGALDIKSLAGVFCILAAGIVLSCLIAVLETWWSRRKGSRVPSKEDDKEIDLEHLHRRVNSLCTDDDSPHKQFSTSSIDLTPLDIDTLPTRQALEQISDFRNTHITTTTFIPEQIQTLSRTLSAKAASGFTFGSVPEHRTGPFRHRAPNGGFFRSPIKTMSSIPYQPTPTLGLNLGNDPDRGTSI

Effect on current, in words [1]	D-Serine effect (Baseline −10 mM D-Serine) ([1]; 10 mM D-serine, positive = increase, negative = decrease of activity)	D-Serine effect (Baseline −10 mM D-Serine) ([2]; 10 mM D-serine)	Compound	Pentamidine effect (Baseline −100 μM Pentamidine) ([1]; 100 μM pentamidine, positive = increase, negative = decrease of activity)	Pentamidine effect (Baseline −100 μM Pentamidine) ([2]; 100 μM pentamidine)
insensitive	7.2 ± 1.8 (6) nA	−5.8 ± 2.4 (12) nA	N[C@H](CO)C(=O)O [D-serine]		
			N=C(N)c1ccc(OCCCCCOc2ccc(C(=N)N)cc2)cc1 [Pentamidine, pentamidine]	64 ± 15 (6) nA	−0.67 ± 1.1 (12) nA
